Experimental data taken from US12162901B2, “N-acetylated sialic acids and related sialosides” (priority 2016, dated 2024).

What was measured:
SpNanC [1] = biological target: T1, SpNanC (Streptococcus pneumoniae, UniProt A0A0H2UQE4); assay: HPLC-based kinetic study of SpNanC; assay type: biochemical; conditions: for kcat: SpNanC, apparent, MES buffer pH 6.5, 37° C., 10 min, spread and × 10^2 on wrapped line below
Method: (§1) HPLC-based assays were carried out as described above for microtiter plate-based assays. The reactions were stopped by adding 40 μL of pre-chilled ethanol. The mixtures were then centrifuged and the supernatants were analyzed by Agilent 1290 Infinity HPLC system at 315 nm. […] A C18 reverse phase Rapid Resolution High Definition column (EclipsePlusC18 RRHD 1.8 μm, 2.1×50 mm, Agilent) was used for analyzing samples with Neu5Ac9NAcα2-3GalβpNP (2.1) or Neu5,9Ac2α2-6GalβpNP (2.20).
After stopping the reactions by adding 40 μL of pre-chilled ethanol, the mixtures were centrifuged and the supernatants were analyzed by the HPLC system as described above. Apparent kinetic parameters were obtained by varying substrate concentrations from 0.1-40 mM (0.1, 0.2, 0.4, 1, 2, 4, 10, 20, and 40 mM) and fitting the data (the average values of duplicate assay results) into the Michaelis-Menten equation using Grafit 5.0.

BiNanH2 [2] = biological target: T2, BiNanH2 (Bifidobacterium longum, UniProt A0ACD7UU12); assay: HPLC-based kinetic study of BiNanH2; assay type: biochemical, Bifidobacterium infantis; conditions: for kcat: BiNanH2, apparent, NaOAc buffer pH 5.0, 37° C., 10 min, spread and × 10^2 on wrapped line below; for activity of BiNanH2 towards the substrate: kinetic study, HPLC
T2 sequence (A0ACD7UU12 1-394): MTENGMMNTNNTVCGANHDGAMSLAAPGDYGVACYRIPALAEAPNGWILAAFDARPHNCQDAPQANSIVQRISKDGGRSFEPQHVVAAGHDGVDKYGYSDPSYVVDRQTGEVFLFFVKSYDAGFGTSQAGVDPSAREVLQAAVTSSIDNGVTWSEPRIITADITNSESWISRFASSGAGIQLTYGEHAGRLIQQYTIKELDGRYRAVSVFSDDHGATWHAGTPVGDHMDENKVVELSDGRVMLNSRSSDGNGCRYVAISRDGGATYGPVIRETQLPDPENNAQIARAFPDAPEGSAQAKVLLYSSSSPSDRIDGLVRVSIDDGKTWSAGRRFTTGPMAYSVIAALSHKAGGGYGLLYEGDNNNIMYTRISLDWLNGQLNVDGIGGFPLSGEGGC
Method: as §1
(§2) The reactions were stopped by adding 40 μL of pre-chilled ethanol. The mixtures were then centrifuged and the supernatants were analyzed by the HPLC system described above for HPLC-based assays. Apparent kinetic parameters were obtained by varying substrate concentrations from 0.1-40 mM (0.1, 0.2, 0.4, 1, 2, 4, 10, 20, and 40 mM) and fitting the data (the average values of duplicate assay results) into the Michaelis-Menten equation using Grafit 5.0.

[3] = biological target: T3, human cytosolic sialidase hNEU2 (Homo sapiens, UniProt Q9Y3R4); assay: Sialidase substrate specificity of Leg glycosides (HPLC/capillary electrophoresis), hNEU2; assay type: biochemical; conditions: 37° C., 16 hs, pH 5.0
T3 construct: made in house

A. ureafaciens sialidase = assay: Sialidase substrate specificity of Leg glycosides (HPLC/capillary electrophoresis), A. ureafaciens sialidase; assay type: biochemical, Arthrobacter ureafaciens; conditions: pH 5.5
V. cholerae sialidase = biological target: T4, V. cholerae sialidase (Vibrio cholerae serotype O1, UniProt P0C6E9); assay: Sialidase substrate specificity of Leg glycosides (HPLC/capillary electrophoresis), V. cholerae sialidase; assay type: biochemical; conditions: pH 5.5
T4 construct: purchased Roche

[4] = biological target: C. perfringens sialidase (CpNanH) (Clostridium perfringens, UniProt P10481); assay type: biochemical; conditions: 37° C., 16 hs, pH 5.0
BiNanH2 [5] = biological target: T2, BiNanH2; assay: Sialidase substrate specificity of Leg glycosides (HPLC/capillary electrophoresis), BiNanH2; assay type: biochemical, Bifidobacterium infantis; conditions: 37° C., 16 hs, pH 5.0
SpNanA = biological target: T5, SpNanA (Streptococcus pneumoniae, UniProt P62575); assay: Sialidase substrate specificity of Leg glycosides (HPLC/capillary electrophoresis), SpNanA; assay type: biochemical; conditions: 37° C., 16 hs, pH 6.0
T5 construct: made in house

SpNanB = biological target: T6, SpNanB (Streptococcus pneumoniae serotype 4, UniProt Q54727, E68D/K536E/K577E/N393D/S59P); assay: Sialidase substrate specificity of Leg glycosides (HPLC/capillary electrophoresis), SpNanB; assay type: biochemical; conditions: 37° C., 16 hs, pH 6.0
T6 construct: made in house

SpNanC [6] = biological target: T1, SpNanC; assay: Sialidase substrate specificity of Leg glycosides (HPLC/capillary electrophoresis), SpNanC; assay type: biochemical; conditions: 37° C., 16 hs, pH 6.5
[7] = substrate: CC(=O)N[C@@H]1C(O)C[C@](OC2C(O)[C@H](Oc3ccc([N+](=O)[O-])cc3)OC(CO)[C@@H]2O)(C(=O)O)OC1[C@H](NC(C)=O)[C@@H](C)O; assay: Kinetic studies for PmST1 α2-3-sialidase activity (HPLC); assay type: biochemical, Pasteurella multocida; conditions: other: PmST1, apparent, NaOAc buffer pH 5.5, CMP (0.4 mM), 37° C., 10 min
Method: as §2, with “Kinetic studies for PmST1 were performed in duplicates at 37° C. for 10 min. […] The reactions” for “The reactions”, “by adding 20 μL of” for “by adding 40 μL of”, “above for sialidase substrate specificity studies assays. Apparent” for “above for HPLC-based assays. Apparent”

[8] = substrate: CC(=O)N[C@H]1[C@H]([C@H](O)[C@H](O)CO)O[C@@](O[C@H]2[C@@H](O)[C@@H](CO)O[C@@H](Oc3ccc([N+](=O)[O-])cc3)[C@@H]2O)(C(=O)O)C[C@@H]1O; assay: as above; assay type: biochemical, Pasteurella multocida; conditions: other: PmST1, apparent, NaOAc buffer pH 5.5, CMP (0.4 mM), 37° C., 10 min
Method: as §2, with “Kinetic studies for PmST1 were performed in duplicates at 37° C. for 10 min. […] The reactions” for “The reactions”, “by adding 20 μL of” for “by adding 40 μL of”, “above for sialidase substrate specificity studies assays. Apparent” for “above for HPLC-based assays. Apparent”

T3 sequence (Q9Y3R4 whole entry): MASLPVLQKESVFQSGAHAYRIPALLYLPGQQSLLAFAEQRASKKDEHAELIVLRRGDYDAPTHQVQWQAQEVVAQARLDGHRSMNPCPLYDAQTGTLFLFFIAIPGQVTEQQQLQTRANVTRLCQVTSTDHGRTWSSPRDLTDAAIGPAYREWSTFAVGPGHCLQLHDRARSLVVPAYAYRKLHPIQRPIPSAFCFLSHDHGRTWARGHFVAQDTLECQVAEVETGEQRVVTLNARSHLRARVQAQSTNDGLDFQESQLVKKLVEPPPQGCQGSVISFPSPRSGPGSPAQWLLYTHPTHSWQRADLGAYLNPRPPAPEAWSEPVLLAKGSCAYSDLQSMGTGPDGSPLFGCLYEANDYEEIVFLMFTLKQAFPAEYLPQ

## CC(=O)NC[C@@H](O)[C@@H](O)[C@@H]1O[C@@](O[C@H]2[C@@H](O)[C@@H](CO)O[C@@H](Oc3ccc([N+](=O)[O-])cc3)[C@@H]2O)(C(=O)O)C[C@H](O)[C@H]1NC(C)=O [2.1, 4-Nitrophenyl O-(5,9-diacetamido-3,5,9-trideoxy-D-glycero-α-D-galacto-2-nonulopyranosylonic acid)-(2→3)-O-β-D-galactopyranoside]
SpNanC [1]
  kcat: (3.38 × 10^2 s^−1
BiNanH2 [2]
  kcat: (1.08 × 10^2 s^−1

## CC(=O)NC[C@@H](O)[C@@H](O)[C@@H]1O[C@@](OC[C@H]2O[C@@H](Oc3ccc([N+](=O)[O-])cc3)[C@H](O)[C@@H](O)[C@H]2O)(C(=O)O)C[C@H](O)[C@H]1NC(C)=O [2.8, 4-Nitrophenyl O-(5,9-diacetamido-3,5,9-trideoxy-D-glycero-α-D-galacto-2-nonulopyranosylonic acid)-(2→6)-O-β-D-galactopyranoside]
BiNanH2 [2]
  kcat: (8.07 × 10^2 s^−1

## CC(=O)N[C@H]1[C@H]([C@H](O)[C@H](O)CO)O[C@@](O[C@H]2[C@@H](O)[C@@H](CO)O[C@@H](Oc3ccc([N+](=O)[O-])cc3)[C@@H]2O)(C(=O)O)C[C@@H]1O [2.17, Neu5Acα2-3GalβpNP]
SpNanC [1]
  kcat: (3.65 × 10^2 s^−1
BiNanH2 [2]
  kcat: (1.66 × 10^2 s^−1

## CC(=O)N[C@H]1[C@H]([C@H](O)[C@H](O)CO)O[C@@](OC[C@H]2O[C@@H](Oc3ccc([N+](=O)[O-])cc3)[C@H](O)[C@@H](O)[C@H]2O)(C(=O)O)C[C@@H]1O [2.18, Neu5Acα2-6GalβpNP]
BiNanH2 [2]
  kcat: (3.31 × 10^2 s^−1

## CC(=O)N[C@H]1[C@H]([C@H](O)[C@H](O)COC(C)=O)O[C@@](O[C@H]2[C@@H](O)[C@@H](CO)O[C@@H](Oc3ccc([N+](=O)[O-])cc3)[C@@H]2O)(C(=O)O)C[C@@H]1O [2.19, Neu5,9Ac2α2-3GalβpNP]
SpNanC [1]; SpNanC kcat/KM ratio
  catalytic efficiency of SpNanC, fold higher than for 2.1 and 2.17: 2.2-2.3 fold
SpNanC [1]
  kcat: (3.78 × 10^2 s^−1
BiNanH2 [2]
  activity of BiNanH2 towards the substrate: not high enough for obtaining apparent kinetics parameters

## CC(=O)NC1C(O)CC(OCC2OC(Oc3ccc([N+](=O)[O-])cc3)C(O)C(O)C2O)(C(=O)O)OC1C(O)C(O)COC(C)=O (stereo not drawn) [2.20, Neu5,9Ac2α2-6GalβpNP]
BiNanH2 [2]
  activity of BiNanH2 towards the substrate: not high enough for obtaining apparent kinetics parameters

## C[C@@H](O)[C@@H](N=[N+]=[N-])C1O[C@@](OCC2O[C@@H](Oc3ccc([N+](=O)[O-])cc3)C(O)C(O)[C@H]2O)(C(=O)O)CC(O)[C@H]1N=[N+]=[N-] (stereo partly drawn) [3-14, Leg5,7diN3α2-6GalβpNP]
[3]
  activity of hNEU2 for the compound: did not show activity
A. ureafaciens sialidase
  activity of A. ureafaciens sialidase for the compound: did not show activity
V. cholerae sialidase
  activity of V. cholerae sialidase for the compound: did not show activity
[4]
  activity of C. perfringens sialidase (CpNanH) for the compound: did not show activity
BiNanH2 [5]
  activity of BiNanH2 for the compound: did not show activity
SpNanA
  activity of SpNanA for the compound: did not show activity
SpNanB
  activity of SpNanB for the compound: did not show activity
SpNanC [6]
  activity of SpNanC for the compound: did not show activity

## CC(=O)N[C@@H]1C(O)C[C@](OCC2O[C@@H](Oc3ccc([N+](=O)[O-])cc3)C(O)C(O)[C@H]2O)(C(=O)O)OC1[C@H](NC(C)=O)[C@@H](C)O (stereo partly drawn) [3-20, Leg5,7Ac2α2-6GalβpNP]
[3]
  activity of hNEU2 for the compound: did not show activity
A. ureafaciens sialidase
  activity of A. ureafaciens sialidase for the compound: did not show activity
V. cholerae sialidase
  activity of V. cholerae sialidase for the compound: did not show activity
[4]
  activity of C. perfringens sialidase (CpNanH) for the compound: did not show activity
BiNanH2 [5]
  activity of BiNanH2 for the compound: did not show activity
SpNanA
  activity of SpNanA for the compound: did not show activity
SpNanB
  activity of SpNanB for the compound: did not show activity
SpNanC [6]
  activity of SpNanC for the compound: did not show activity

B1: PmST1 (α2-3-sialidase activity) (Pasteurella multocida) (protein)
chain: KTITLYLDPASLPALNQLMDFTQNNEDKTHPRIFGLSRFKIPDNIITQYQNIHFVELKDNRPTEALFTILDQYPGNIELNIHLNIAHSVQLIRPILAYRFKHLDRVSIQQLNLYDDGSMEYVDLEKEENKDISAEIKQAEKQLSHYLLTGKIKFDNPTIARYVWQSAFPVKYHFLSTDYFEKAEFLQPLKEYLAENYQKMDWTAYQQLTPEQQAFYLTLVGFNDEVKQSLEVQQAKFIFTGTTTWEGNTDVREYYAQQQLNLLNHFTQAEGDLFIGDHYKIYFKGHPRGGEINDYILNNAKNITNIPANISFEVLMMTGLLPDKVGGVASSLYFSLPKEKISHIIFTSNKQVKSKEDALNNPYVKVMRRLGIIDESQVIFWDSLKQL
[7]
  Km: 17.38 ± 0.70 mM
  kcat: 1.16 ± 0.0217 s⁻¹
  kcat/Km: 66.7 M⁻¹ s⁻¹
[8]
  Km: 4.73 ± 0.31 mM
  kcat: 9.26 ± 0.185 s⁻¹
  kcat/Km: 1950 M⁻¹ s⁻¹
